According to the NIST ThermoML archive (doi:10.1016/j.jct.2013.08.021):
Numbers after ± are expanded uncertainties.

Experiments:
[1] = xn = mol fraction of the nth substance listed; conditions: 101 kPa, Liquid, x1 = 1; for speed of sound: Sing-around technique in a fixed-path interferometer; for mass density: Vibrating tube method
[2] = refractive index (Na D-line) (dimensionless); xn = mol fraction of the nth substance listed; conditions: 101 kPa, Liquid, Standard Abbe refractometry, x1 = 1
[3] = 101 kPa, Liquid; for speed of sound: Sing-around technique in a fixed-path interferometer; for mass density: Vibrating tube method
[4] = refractive index (Na D-line) (dimensionless); conditions: 101.33 kPa, Liquid, Standard Abbe refractometry

Row | Compound | speed of sound ([1]; 298.15 K) [m/s] | mass density ([1]; 298.15 K) [kg/m3] | speed of sound ([1]; 303.15 K) [m/s] | mass density ([1]; 303.15 K) [kg/m3] | speed of sound ([1]; 308.15 K) [m/s] | mass density ([1]; 308.15 K) [kg/m3] | refractive index ([2]; 298.15 K) | refractive index ([2]; 303.15 K) | refractive index ([2]; 308.15 K) | speed of sound ([3]; 298.15 K) [m/s] | mass density ([3]; 298.15 K) [kg/m3] | speed of sound ([3]; 303.15 K) [m/s] | mass density ([3]; 303.15 K) [kg/m3] | speed of sound ([3]; 308.15 K) [m/s] | mass density ([3]; 308.15 K) [kg/m3] | refractive index ([4]; 298.15 K) | refractive index ([4]; 303.15 K) | refractive index ([4]; 308.15 K)
1 | CCCO [propan-1-ol] + CCC[N+]1(C)CCCC1.O=S(=O)([N-]S(=O)(=O)C(F)(F)F)C(F)(F)F | 1206.6 ± 1.2 | 799.87 ± 0.14 | 1189.5 ± 1.2 | 795.94 ± 0.14 | 1172.4 ± 1.2 | 791.78 ± 0.15 | 1.38309 ± 0.00031 | 1.38106 ± 0.00031 | 1.37894 ± 0.00031 |  |  |  |  |  |  |  |  | 
2 | CCO [ethanol] + CCC[N+]1(C)CCCC1.O=S(=O)([N-]S(=O)(=O)C(F)(F)F)C(F)(F)F | 1143.9 ± 1.1 | 785.48 ± 0.15 | 1128 ± 1.1 | 781.16 ± 0.15 | 1111.8 ± 1.1 | 776.81 ± 0.15 | 1.35932 ± 0.00031 | 1.35728 ± 0.00031 | 1.35519 ± 0.00031 |  |  |  |  |  |  |  |  | 
3 | CO [methanol] |  |  |  |  |  |  |  |  |  | 1102.7 ± 1.1 | 786.66 ± 0.15 | 1086.3 ± 1.1 | 781.95 ± 0.15 | 1070.1 ± 1.1 | 777.2 ± 0.15 | 1.3265 ± 0.00031 | 1.32452 ± 0.00031 | 1.32254 ± 0.00031
4 | CCCO [propan-1-ol] |  |  |  |  |  |  |  |  |  | 1206.6 ± 1.2 | 799.87 ± 0.14 | 1189.5 ± 1.2 | 795.94 ± 0.14 | 1172.4 ± 1.2 | 791.78 ± 0.15 | 1.38309 ± 0.00031 | 1.38106 ± 0.00031 | 1.37894 ± 0.00031
5 | CCO [ethanol] |  |  |  |  |  |  |  |  |  | 1143.9 ± 1.1 | 785.48 ± 0.15 | 1128 ± 1.1 | 781.16 ± 0.15 | 1111.8 ± 1.1 | 776.81 ± 0.15 | 1.35932 ± 0.00031 | 1.35728 ± 0.00031 | 1.35519 ± 0.00031
6 | CO [methanol] + CCC[N+]1(C)CCCC1.O=S(=O)([N-]S(=O)(=O)C(F)(F)F)C(F)(F)F | 1102.7 ± 1.1 | 786.66 ± 0.15 | 1086.3 ± 1.1 | 781.95 ± 0.15 | 1070.1 ± 1.1 | 777.2 ± 0.15 | 1.3265 ± 0.00031 | 1.32452 ± 0.00031 | 1.32254 ± 0.00031 |  |  |  |  |  |  |  |  | 
